Data: patent US7282507B2, “Indole derivatives as selective androgen receptor modulators (SARMS)” (Janssen Pharmaceutica N.V., priority 2004, dated 2007)

molecular target: T1, androgen receptor (AdEasy+rAR, L929 cells) (Rattus norvegicus, UniProt P15207); assay: L929 Androgen Receptor Functional Assay, Adenovirus Transduction; type: cell-based; details: agonist testing, 3000 nM
T1 construct: expressed in transfected cells; host or cells: L929 cells transduced with adenovirus AdEasy+rAR
T1 sequence (P15207 1-902): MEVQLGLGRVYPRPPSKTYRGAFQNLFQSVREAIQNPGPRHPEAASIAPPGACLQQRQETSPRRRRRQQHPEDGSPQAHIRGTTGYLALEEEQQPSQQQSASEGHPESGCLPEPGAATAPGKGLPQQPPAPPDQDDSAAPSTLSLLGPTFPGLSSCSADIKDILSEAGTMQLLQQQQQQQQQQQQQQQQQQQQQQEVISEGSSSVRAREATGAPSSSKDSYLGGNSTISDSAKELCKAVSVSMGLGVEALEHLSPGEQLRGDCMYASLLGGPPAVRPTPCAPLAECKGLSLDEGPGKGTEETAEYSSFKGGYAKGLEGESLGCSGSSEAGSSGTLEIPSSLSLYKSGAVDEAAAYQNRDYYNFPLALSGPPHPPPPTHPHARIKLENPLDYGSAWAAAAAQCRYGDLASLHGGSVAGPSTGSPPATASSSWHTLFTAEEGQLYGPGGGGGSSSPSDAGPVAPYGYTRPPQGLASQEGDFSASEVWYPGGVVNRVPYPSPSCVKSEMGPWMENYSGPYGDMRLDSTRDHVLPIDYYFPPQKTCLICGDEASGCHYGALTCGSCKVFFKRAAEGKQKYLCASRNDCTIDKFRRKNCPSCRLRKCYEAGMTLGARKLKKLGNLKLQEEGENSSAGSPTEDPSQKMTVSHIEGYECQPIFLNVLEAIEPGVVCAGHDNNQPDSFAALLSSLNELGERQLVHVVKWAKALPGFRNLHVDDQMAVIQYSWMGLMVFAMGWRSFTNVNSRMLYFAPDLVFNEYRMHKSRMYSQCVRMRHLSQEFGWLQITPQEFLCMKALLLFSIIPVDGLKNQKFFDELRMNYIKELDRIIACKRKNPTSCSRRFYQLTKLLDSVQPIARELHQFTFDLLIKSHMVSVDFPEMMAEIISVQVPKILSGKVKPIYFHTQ
Method: L929 cells were plated in 96-well plates at 20,000 cells per well, in DMEM/F12 (GIBCO) containing 10% (v/v) charcoal-treated fetal bovine serum (Hyclone) and lacking phenol red. The plates were then incubated overnight at 37° C. in 5% (v/v) humidified CO2.
Test compound dilutions were prepared in 100% (v/v) DMSO, if necessary. Each dilution was made to 1250× the final desired assay concentration.
First, 2 mL of DMEM/F12 lacking phenol red was pipetted into the wells of a 2-mL 96-well assay block. Next, 4 μL of the 1250× test compound dilutions were pipetted into each well of the assay block. The mixtures within the well were then carefully mixed by pipette.
In a 15 mL or 50 mL sterile centrifuge tube, a 2.5 nM (2.5×) dilution of R1881 (methyl-trienolone) in DMEM/F12 lacking phenol red was prepared.
In a second 15 mL or 50 mL centrifuge tube a solution containing an equal volume of DMEM to the first and an equal volume of 100% (v/v) DMSO to the volume of R1881 used in the first tube was prepared.
In a 15 mL or 50 mL sterile centrifuge tube, a dilution in DMEM/F12 of the adenovirus AdEasy+rAR at an moi of 1:500 per well was prepared.
The medium was removed from the 96-well plates by inversion and dried, inverted, very briefly. As soon as possible after medium removal, 40 μL of the diluted unlabeled test compound was added to each well, in duplicate. To each well designated for antagonist testing was added 40 μL of the 2.5 nM R1881 dilution to the wells for antagonist testing. To each well designated for agonist testing was added 40 μL of the DMSO dilution. Then 20 μL of the diluted adenovirus were added to all wells. The plates were incubated for 48 hours at 37° C. in 5% (v/v) humidified CO2.
To each well was added 100 μL of Steady-Glo luciferase assay substrate (Promega) and the plates were placed on a rotary shaker for 1 min. The plates were then incubated at room temperature in the dark for one hour. The contents of each well were then transferred to a white microtiter plate (Packard) and read on a Luminoskan Ascent (Thermo Lab Systems).
L929 AR percent activity was determined by testing dilutions of the test compound using a concentration of 3000 nM unless otherwise noted. L929 percent inhibition was determined by testing dilutions of the test compound using a concentration of 3000 nM. […] Luciferase activity per well were measured and EC50s and IC50s determined by linear regression.

Compound	% Activity, L929 androgen receptor functional assay [%]
CC(O)(CSc1ccc(N)cc1)c1cc2cc(Cl)c(C(F)(F)F)cc2n1S(C)(=O)=O (racemic) [Compound 125]	−5
CC(O)(CSCC(F)(F)F)c1cc2cc(C#N)c(C(F)(F)F)cc2[nH]1 (racemic) [Compound 211]	−1

system: testosterone-enhanced ventral prostate and seminal vesicle weights; assay: Ventral Prostate and Seminal Vesicle Weight in vivo Assay; parameters: species or system rat; details: immature castrated male Sprague Dawley rats, once daily for five days, usually orally 40 mg/kg, with testosterone propionate 2 mg/kg s.c. Further: key: 'active' if the non weight adjusted prostate weight was ≦40 mg or the % Inhibition prostate weight, body weight adjusted was ≧40% @ 2 mg/day dosage; ID50's, if determined, of ≦15 mg/day also indicated an 'active' compound; listed herein as 'inactive' as they did not meet the specified criteria defined above.
Method: Immature (approximately 50 g) castrated male Sprague Dawley rats (Charles River) were treated once daily for five days with test compound (usually given orally at 40 mg/kg in a volume of 0.3 mL, in 30% cyclodextrin or 0.5% methylcellulose vehicle) and with testosterone propionate (given subcutaneously by injection at the nape of the neck at 2 mg/kg, in a volume of 0.1 mL in sesame oil). On the sixth day, the rats were euthanized by asphyxiation in carbon dioxide. Ventral prosatates and seminal vesicles were removed and their wet weights determined.
A test compound was said to be “active” if the non weight adjusted prostate weight was ≦40 mg or the % Inhibition prostate weight, body weight adjusted was ≧40% @ 2 mg/day dosage.

Compound	active / inactive: inhibition of testosterone-enhanced prostate weight
CCSCC(O)c1[nH]c2cc(C(F)(F)F)c(C#N)cc2c1Br (racemic) [Compound 413]	inactive
CCSCC(C)(O)c1cc2cc(C#N)ncc2[nH]1 (stereo not shown) [Compound 7]	inactive
CC(C)(O[Si](C)(C)C)c1cc2cc([N+](=O)[O-])c(C(F)(F)F)cc2n1S(C)(=O)=O [Compound 269]	inactive
CC(C)(O)c1[nH]c2cc(C(F)(F)F)c([N+](=O)[O-])cc2c1Cl [Compound 275]	active
CCSCC(C)(O)c1cc2cc(Cl)c(C#N)cc2[nH]1 (single isomer, unassigned) [Compound 228]	inactive
CCS(=O)(=O)CC(C)(O)c1cc2cc(C#N)c(C(F)(F)F)cc2[nH]1 (single isomer, unassigned) [Compound 397]	inactive
CC(C)(O)c1cc2cc([N+](=O)[O-])c(C(F)(F)F)cc2[nH]1 [Compound 274]	inactive
CCSCC(O)c1[nH]c2cc(C(F)(F)F)c(C#N)cc2c1I (racemic) [Compound 411]	inactive
CC(O)(c1cc2cc(C#N)c(C(F)(F)F)cc2[nH]1)C(F)(F)F (stereo not shown) [Compound 334, 2-(2,2,2-Trifluoro-1-hydroxy-1-methyl-ethyl)-6-trifluoromethyl-1H-indole-5-carbonitrile]	active
CCS(=O)(=O)CC(C)(O)c1cc2cc(Cl)c(C(F)(F)F)cc2[nH]1 (racemic) [Compound 404]	active
CCSCC(C)(O)c1cc2cc(C)c(C(F)(F)F)cc2[nH]1 (racemic) [Compound 414]	inactive
CC(C)(O)c1[nH]c2cc(C(F)(F)F)c(C#N)cc2c1Br [Compound 288]	active
CC(O)(COc1ccc(C#N)c(C(F)(F)F)c1)c1cc2cc(C#N)c(C(F)(F)F)cc2[nH]1 (stereo not shown) [Compound 429, 2-[2-(4-Cyano-3-trifluoromethyl-phenoxy)-1-hydroxy-1-methyl-ethyl]-6-trifluoromethyl-1H-indole-5-carbonitrile]	inactive
OC1(c2cc3cc(Cl)c(C(F)(F)F)cc3[nH]2)CCSC1 (racemic) [Compound 14]	inactive
CCSCC(O)(c1cc2cc(C#N)c(C(F)(F)F)cc2[nH]1)C(F)(F)F (racemic) [Compound 327]	active
CC[S+]([O-])CC(C)(O)c1[nH]c2cc(C(F)(F)F)c(C#N)cc2c1C (mixture of isomers) [Compound 319]	active
CCSCC(C)(O)c1cc2cc(C#N)c(C)cc2[nH]1 (racemic) [Compound 446]	inactive
CCSCC(C)(O)c1cc2cc(C#N)c(C(F)(F)F)cc2n1COC (racemic) [Compound 322]	inactive

Compound	active / inactive: inhibition of testosterone-enhanced prostate weight
CSCn1c(C(C)(O)C(F)(F)F)cc2cc(C#N)c(C(F)(F)F)cc21 (racemic) [Compound 333]	active
CC(C)(O)c1[nH]c2cc(C(F)(F)F)c(Cl)cc2c1Br [Compound 280]	inactive
CC(C)(O)c1[nH]c2cc(C(F)(F)F)c(Cl)cc2c1I [Compound 279]	inactive
CCSCC(C)(O)c1cc2cc(Cl)c(C(F)(F)F)cc2n1S(C)(=O)=O (racemic) [Compound 146]	inactive
CCS(=O)(=O)CC(O)c1cc2cc(C#N)c(C(F)(F)F)cc2[nH]1 (racemic) [Compound 412]	inactive
CC(O)(c1[nH]c2cc(C(F)(F)F)c(C#N)cc2c1Cl)C(F)(F)F (single isomer, unassigned) [Compound 345]	active
CC(O)(CSCc1ccccn1)c1cc2cc([N+](=O)[O-])c(C(F)(F)F)cc2[nH]1 (racemic) [Compound 204]	inactive
N#Cc1cc2cc(C3(O)CCSC3)[nH]c2cc1C(F)(F)F (racemic) [Compound 15]	inactive
CCc1c(C(C)(O)CS(=O)(=O)CC)[nH]c2cc(C(F)(F)F)c(C#N)cc12 (single isomer, unassigned) [Compound 354]	active
CCSCC(O)(CSCC)c1cc2cc([N+](=O)[O-])c(C(F)(F)F)cc2[nH]1 [Compound 13]	inactive
CCSCC(C)(O)c1cc2cc(C#N)c(C(F)(F)F)cc2n1CC(F)(F)F (racemic) [Compound 237]	active
CC(O)(c1[nH]c2cc(C(F)(F)F)c(C#N)cc2c1I)C(F)(F)F (racemic) [Compound 330]	active
CCSCC(C)(O)c1[nH]c2cc(C(F)(F)F)c([N+](=O)[O-])cc2c1I (single isomer, unassigned) [Compound 244]	active
CC(C)(O[Si](C)(C)C)c1cc2cc(Cl)c(C(F)(F)F)cc2n1S(C)(=O)=O [Compound 270]	inactive
CC(C)(O)c1[nH]c2cc(C(F)(F)F)c(C#N)cc2c1I [Compound 278]	active
CCS(=O)(=O)CC(C)(O)c1cc2cc([N+](=O)[O-])c(C(F)(F)F)cc2n1C (single isomer, unassigned) [Compound 250]	active
CCSCC(C)(O)c1c(C)c2cc(C#N)c(C(F)(F)F)cc2n1C (single isomer, unassigned) [Compound 318]	inactive
